For assay [1], the target named is T1, recombinant human furin (Homo sapiens, UniProt P09958).
T1 construct: made in house
Put plainly: FRET peptide enzymatic kinetics assay of cleavage by furin. It counts as biochemical. The conditions noted are these: for Km / kcat: FRET peptide as furin substrate, 10 mM MES, 1 mM CaCl2, pH 7.0, 37°C, fluorescence λex 320 nm/λem 420 nm, non-linear Michaelis-Menten fit (Grafit). On the procedure:
Recombinant human furin was expressed and purified as previously described ([Kacprzak et al., 2004]). The enzyme concentration was determined by active site titration using the inhibitor decanoyl-RVKR-CMK inhibitor in 10 mM MES buffer, 1 mM CaCl2, pH 7.0 and the substrate Abz-GIRRKRSVSHQ-EDDnp.
Seven synthetic peptides were obtained by solid-phase strategy, as previously described ([Izidoro et al., 2010]) using the Fmoc-procedure in an automated multiple solid-phase peptide synthesizer (PSSM 8 system, Shimadzu, Japan) ([Hirata et al., 1995]; [Korkmaz et al., 2008]). Peptides were prepared in dimethylformamide and stock concentrations measured spectrophotometrically at 365 nm (e = 17,300 M^-1.cm^-1). The quantum yields of the FRET peptides and the products of their hydrolysis were unchanged in all tested conditions.
The FRET peptides were assayed in 10 mM MES, 1 mM CaCl2, pH 7.0, using a F-2500 spectrofluorimeter (Hitachi, Tokyo, Japan), at 37°C ([Izidoro et al., 2010]), as previously described. Fluorescence changes were monitored continuously at λex = 320 nm and λem = 420 nm. The enzyme concentrations for initial rate determinations were chosen at a level intended to hydrolyze less than 5% of the amount of added substrate over the time course of data collection.
Three kinetic parameters from the Michaelis-Menten model were analyzed, representing enzyme-substrate (km), the catalysis constant (kcat) and the kcat/km ratio. The kinetic parameters km and kcat were calculated by non-linear regression using Grafit software (Erithacus Software, Horley, Surrey, UK). km, kcat, and standard errors (less than 10%) were calculated using Grafit software (v.5.0.13, Erithacus Software, Horley, Surrey, UK) with a non-linear least squares Michaelis-Menten fit associated with a matrix invertion fitting routine to refine kcat, km and allowing estimation of the errors. Standard deviations greater than 10% are due to low values obtained.

For assay [2], the target named is T1, recombinant human furin. Put plainly: Analysis of furin-processed FRET substrates by LC-MS / HPLC / Maldi-TOF. It counts as biochemical. The conditions noted are these: FRET peptide 5 μM, spectrofluorimeter and Maldi-TOF after 2 h of incubation with furin. From the text:
In order to see if the mutations have an influence in cleavage, peptides containing the original reference sequences and their derivative containing positive selected mutations, were synthesized and tested against recombinant human furin. All substrates were cleaved after the double basic residues RR or KR as analyzed by Liquid Chromatography mass spectrometry (LC-MS) (Supplementary Figures S1–S3). The kcat/km ratio relates to the catalytic efficiency, meaning how fast in […] the enzyme reacts with the substrate once it encounters it. As a control, a peptide which contains a mutation previously shown to interfere with furin cleavage ([Strive et al., 2002]) was tested and as expected no cleavage was observed (Table 2 and Supplementary Figure S3).
Supplementary file Image_1.TIF: FIGURE S1 HPLC of furin-processed FRET substrates. […] Substrate and products were followed by fluorescence (Abz, ex320 nm; em420 nm) quenching (Eddnp, uv = 365 nm) indicating single cleavage site for all tested sequences. (A) gB3_22. (B) gB_20. (C) gB3_26 (D) gB2_18. (E) gB2_13. (F) gB2_19. Click here for additional data file.
Supplementary file Image_2.TIF: FIGURE S2 Mass spectra of furin-processed substrates. […] (A) gB3_22 substrate and products (1549.3, 678.7, and 888.7 Da). (B) gB2_13 (1634.4, 706.7, and 945.7 Da). (C) gB_20 (1604.3, 706.7, and 915.6 Da). […]

Where [3] appears, read: versus genotype 3 reference peptide (gB3_22).

T1 sequence (P09958 108-794): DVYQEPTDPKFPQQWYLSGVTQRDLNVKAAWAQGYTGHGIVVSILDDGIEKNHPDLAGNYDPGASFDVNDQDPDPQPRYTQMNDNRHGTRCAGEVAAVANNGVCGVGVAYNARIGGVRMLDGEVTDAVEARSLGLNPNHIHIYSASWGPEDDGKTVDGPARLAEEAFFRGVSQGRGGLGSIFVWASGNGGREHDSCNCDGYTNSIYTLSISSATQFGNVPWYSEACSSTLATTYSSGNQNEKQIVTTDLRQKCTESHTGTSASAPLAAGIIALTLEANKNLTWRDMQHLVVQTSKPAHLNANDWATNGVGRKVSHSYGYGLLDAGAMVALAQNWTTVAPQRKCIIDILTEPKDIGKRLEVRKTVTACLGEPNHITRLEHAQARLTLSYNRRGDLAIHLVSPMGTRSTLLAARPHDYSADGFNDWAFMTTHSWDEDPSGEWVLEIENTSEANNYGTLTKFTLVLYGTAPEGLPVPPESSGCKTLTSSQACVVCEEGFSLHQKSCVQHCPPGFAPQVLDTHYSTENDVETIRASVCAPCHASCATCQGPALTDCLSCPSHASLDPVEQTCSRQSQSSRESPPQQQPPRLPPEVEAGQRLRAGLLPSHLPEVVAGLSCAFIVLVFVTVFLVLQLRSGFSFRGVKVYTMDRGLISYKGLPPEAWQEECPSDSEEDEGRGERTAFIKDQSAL

On to “RTRR↓SMSDNNT [gB2_18, FRET peptide of gB genotype 2 with the positively selected mutation T462M]”, for which, in assay [1], the Km (in general, the concentration of substrate that gives half-maximal velocity) turned out to be 1.65 µM; the kcat (usually the number of substrate molecules converted per active site and unit of time at saturation) was 3.01 s⁻¹.
For “RTRR↓SASDNNT [gB2_20, FRET peptide of gB genotype 2 with the positively selected mutation T462A]”, in assay [1], the Km was 0.69 µM and the kcat stood at 4.06 s⁻¹.
For “RTRR↓SRSDNNT [gB2_19, FRET peptide of gB genotype 2 with the positively selected mutation T462R]”, in assay [1], the Km worked out at 0.23 µM and the catalytic constant (kcat) was found to be 5.06 s⁻¹. In assay [1] (versus genotype 2 reference sequence (gB2_13)), the “increase of the kcat/km ratio compared to the reference sequence” value turned out to be 31 fold.
Turning to ATRASTSDNNT, the “processing by furin (cleavage observed or not)” value in assay [2] was “not processed by furin”.
Turning to “RTKR↓DTGNTTT [gB3_26, FRET peptide of gB genotype 3 with the positively selected mutation S461D]”, in assay [1], the Km came out at 0.43 µM and the kcat is 1.89 s⁻¹. In assay [1] (setting [3]), the “decrease in kcat/km ratio compared to the reference sequence” value is listed as “threefold” and the “increase in the km compared to the reference sequence” value is given as 20 times.
On to RTRR↓STSDNNT [gB2_13], for which, in assay [1], the Km turned out to be 3.19 µM and the kcat was determined as 2.24 s⁻¹.
For RTKR↓STGNTTT [gB3_22], in assay [1], the Km amounted to 0.02 µM and the kcat turned out to be 0.25 s⁻¹.

These data come from article PMC5441137, “Positively Selected Sites at HCMV gB Furin Processing Region and Their Effects in Cleavage Efficiency” (Frontiers in Microbiology, 2017).
